Source: US7074778B2, “Asthma associated factors as targets for treating atopic allergies including asthma and related disorders” (Genaera Corporation, priority 1999, dated 2006)
Converted amounts (≈) assume the structure as drawn. Like-named read-outs stand apart in the source and are kept apart here.

Legend:
[1] = test system: mitogen or antigen stimulated murine or human lymphocytes; assay: Lymphocyte aggregation assay (PHA-PMA mitogen stimulated); type: cell-based; conditions: aggregates of greater than 100 cells, PHA-PMA stimulation; for minimal effective concentration: Homo sapiens, Lymphocyte, 12 h, read-out: Aggregation Assay Minimum Effective Conc.
Method: (§1) Immunomodulatory 3-aminosteroids (FIGS. 3–7 and Table I) were identified in vitro based on their ability to inhibit homo- or hetero-typic aggregation and subsequent proliferation of mitogen or antigen stimulated murine or human lymphocytes. Human or mouse lymphocytes were isolated from peripheral blood by Ficoll-Hypaque as described (Stoeckert et al., (1990) Exp. Hematol. 18. 1164–1170). For mitogen stimulation, 1×10^5 cells per well were plated in varying amounts of 3-aminosteroid compounds and assayed for aggregation and proliferation after twelve hours of stimulation by PHA-PMA mitogens. […] For antigen stimulation, lymphocytes were isolated from BALBc mice which had been sensitized to Aspergillus fumigatus antigen for three weeks and plated at 1×10^5 cells per well with or without 100 units of Aspergillus fulmigatus antigen. Cells were grown for three days and then scored for cellular aggregates and proliferation as described above in the presence or absence of increasing amounts of Compound-B or analogue compounds. […] Similar results were obtained in assays using antigen mediated response to compounds (not shown). […] All of the active compounds shown in Table I as well as rational modifications of these compounds as depicted in FIGS. 8–10 are embodiments of the invention

[2] = test system: mitogen or antigen stimulated murine or human lymphocytes; assay: PBMC proliferation assay (tritiated thymidine incorporation); type: cell-based; conditions: for IC50: Homo sapiens, Lymphocyte
Method: as §1

D2 naive mice = assay: Bronchial hyperresponsiveness in D2 naive mice (APTI); type: in vivo, mouse; conditions: ip, FIG. 14
Method: DBA2, C57BL6 or B6D2F1 mice, five to six weeks of age, were obtained from the National Cancer Institute or Jackson Laboratories. Animals were housed in high-efficiency particulate filtered air laminar flow hoods in a virus and antigen free facility and allowed free access to pelleted rodent chow and water for three to seven days prior to experimental manipulation. The animal facilities were maintained at 22° C. and the light:dark cycle is automatically controlled (10:14 hour cycle).
Phenotyping and efficacy of pretreatment. Animals either received no pretreatment or were sensitized by nasal aspiration of Aspergillus fumigatus antigen to assess the effect on bronchial hyperresponsiveness, bronchoalveolar lavage and serum IgE. Mice were challenged with Aspergillus or saline intranasally (Monday, Wednesday and Friday for three weeks) and phenotyped twenty-four hours after the last dose. The effect of pretreatment by aminosteroids was used to assess the effect of down-regulating the IL-9 pathway in mice. To determine the bronchoconstrictor response, respiratory system pressure was measured at the trachea and recorded before and during exposure to the drug. Mice were anesthetized and instrumented as previously described. (Kleeberger et al., (1990) Am. J. Physiol. 258, L313–320; Levitt et al., (1995) Clin. Exp. Allergy 25, 61–63; Ewart et al., (1995) J. Appl. Physiol. 79, 560–566). Airway responsiveness was measured to one or more of the following: 5-hydroxytryptamine, acetylcholine, atracurium or a substance-P analogue. A simple and repeatable measure of the change in peak inspiratory pressure following bronchoconstrictor challenge was used which has been termed the Airway Pressure Time Index (APTI). The APTI was assessed by the change in peak respiratory pressure integrated from the time of injection until the peak pressure returns to baseline or plateau.
Active compounds identified in vitro were tested in vivo for their ability to suppress airway hyperresponsiveness, lung eosinophilia and serum Ig levels using assays described above. […]

[3] = FIG. 11 and FIG. 12, mitogen-stimulated lymphocytes, read-out: IC50 for suppression of lymphocyte aggregation and proliferation
[4] = tritiated thymidine incorporation, read-out: PBMC Proliferation ASSAY IC50
[5] = tritiated thymidine incorporation

C[C@H](CC1CCOC1=O)C1CCC2C3CC[C@H]4C[C@@H](N5CCCNCC5)CC[C@]4(C)C3CC[C@@]21C (some centres unmarked) [Compound-M]
minimal effective concentration [1]: 10 µg/mL

C[C@H](CCC(=O)O)C1CCC2C3C(CC[C@@]21C)[C@@]1(C)CC[C@H](NCCN)C[C@H]1C[C@H]3O (some centres unmarked) [E]
minimal effective concentration [1]: > 10 µg/mL
IC50 [2, 3]: > 10 µg/mL

COC(=O)NC[C@@H](C)C1CCC2C3CC[C@H]4C[C@@H](NCCN)CC[C@]4(C)C3CC[C@@]21C (some centres unmarked) [Compound-H]
IC50 [2, 4]: 0.26 µg/mL (≈ 0.6 µM)
PBMC Proliferation ASSAY IC50 [2, 5]: 0.44 µg/mL

CC(C)OC(=O)CC[C@H](C)C1CCC2C3C(O)C[C@@H]4C[C@@H](NCCN)CC[C@]4(C)C3CC[C@@]21C (some centres unmarked) [V]
Aggregation Assay Minimum Effective Conc. [1]: 10 µg/mL
PBMC Proliferation ASSAY IC50 [2, 5]: 0.41 µg/mL

COC(=O)CC[C@H](C)C1CCC2C3C(O)C[C@@H]4C[C@@H](NCCN)CC[C@]4(C)C3CC[C@@]21C (some centres unmarked) [T]
minimal effective concentration [1]: 10 µg/mL
IC50 [2, 4]: 2.77 µg/mL (≈ 6.17 µM)

C[C@H](CCC(=O)O)C1CCC2C3CC[C@@H]4C[C@H](NCCN)CC[C@]4(C)C3C[C@H](O)[C@@]21C (some centres unmarked) [C]
minimal effective concentration [1]: > 10 µg/mL

C[C@@H](CNS(C)(=O)=O)C1CCC2C3CC[C@@H]4C[C@@H](NCCN)CC[C@]4(C)C3CC[C@@]21C (some centres unmarked) [Compound-F]
IC50 [2, 4]: 2.88 µg/mL (≈ 6.35 µM)

C[C@@H](COc1ccccn1)C1CCC2C3CC[C@@H]4C[C@@H](N5CCNCC5)CC[C@]4(C)C3CC[C@@]21C (some centres unmarked) [Compound-P]
minimal effective concentration [1]: > 10 µg/mL

COC(=O)CC[C@H](C)C1CCC2C3C[C@@H](O)[C@@H]4C[C@@H](NCCCOCCCCOCCCN)CC[C@]4(C)C3CC[C@@]21C (some centres unmarked) [AF]
minimal effective concentration [1]: 10 µg/mL
IC50 [2, 4]: 2.41 µg/mL (≈ 4.06 µM)

COC(=O)CC[C@H](C)C1CCC2C3CC[C@@H]4C[C@@H](N)CC[C@]4(C)C3C[C@@H](O)[C@@]21C (some centres unmarked) [AB]
minimal effective concentration [1]: 10 µg/mL
IC50 [2, 4]: 2.54 µg/mL (≈ 6.26 µM)

COC(=O)CC[C@H](C)C1CCC2C3CC[C@@H]4C[C@@H](NCCN)CC[C@]4(C)C3CC[C@@]21C (some centres unmarked) [S]
minimal effective concentration [1]: 10 µg/mL
toxicity remark in PBMC Proliferation ASSAY [2]: toxic
IC50 [2, 4]: < 0.1 µg/mL

COC(=O)CC[C@H](C)C1CCC2C3CC[C@@H]4C[C@@H](NCCCNCCCCNCCCN)CC[C@]4(C)C3CC[C@@]21C (some centres unmarked) [Compound-D]
suppression of bronchial hyperresponsiveness (D2 naive mice): effective in suppressing bronchial hyperresponsiveness
minimal effective concentration [1]: 10 µg/mL
IC50 [2, 3]: 10 µg/mL (≈ 17.4 µM)

COC(=O)CC[C@H](C)C1CCC2C3CC[C@@H]4C[C@@H](NCCC5CCCN5C)CC[C@]4(C)C3C[C@@H](O)[C@@]21C (some centres unmarked) [Z]
minimal effective concentration [1]: 10 µg/mL
IC50 [2, 4]: 0.71 µg/mL (≈ 1.37 µM)

COC(=O)CC[C@H](C)C1CCC2C3CC[C@@H]4C[C@@H](NCCN5CCCC5)CC[C@]4(C)C3C[C@@H](O)[C@@]21C (some centres unmarked) [W]
minimal effective concentration [1]: 10 µg/mL

COC(=O)CC[C@H](C)C1CCC2C3CC[C@@H]4C[C@@H](NCc5ccccn5)CC[C@]4(C)C3C[C@@H](O)[C@@]21C (some centres unmarked) [X]
minimal effective concentration [1]: 10 µg/mL

COC(=O)CC[C@H](C)C1CCC2C3CC[C@@H]4C[C@@H](NCCN)CC[C@]4(C)C3C[C@@H](O)[C@@]21C (some centres unmarked) [AC]
minimal effective concentration [1]: 10 µg/mL
IC50 [2, 4]: 0.47 µg/mL (≈ 1.05 µM)

C[C@@H](CNS(C)(=O)=O)C1CCC2C3CC[C@@H]4C[C@@H](NCCN)CC[C@]4(C)C3CC[C@@]21C (some centres unmarked) [Compound-G]
minimal effective concentration [1]: 10 µg/mL

COC(=O)CC[C@H](C)C1CCC2C3C(CC[C@@]21C)[C@@]1(C)CC[C@H](NCCN)C[C@H]1C[C@@H]3OC(C)=O (some centres unmarked) [AD]
minimal effective concentration [1]: 10 µg/mL
IC50 [2, 4]: 0.29 µg/mL (≈ 0.591 µM)

C[C@@H](COc1ccccn1)C1CCC2C3CC[C@@H]4C[C@@H](NCCN)CC[C@]4(C)C3CC[C@@]21C (some centres unmarked) [Compound-O]
Aggregation Assay Minimum Effective Conc. [1]: 10 µg/mL
PBMC Proliferation ASSAY IC50 [2, 5]: 0.25 µg/mL

C[C@@H](CC1CCOC1=O)C1CCC2C3CC[C@@H]4C[C@@H](NCCN)CC[C@]4(C)C3CC[C@@]21C (mixture of isomers) [Compound-K]
minimal effective concentration [1]: 10 µg/mL
IC50 [2, 4]: 0.31 µg/mL (≈ 0.697 µM)

COC(=O)CC[C@@H](C)C1CCC2C3CC[C@@H]4C[C@@H](NCCN)CC[C@]4(C)C3C[C@H](O)[C@@]21C (some centres unmarked) [AH]
minimal effective concentration [1]: 1 µg/mL
IC50 [2, 4]: 0.1 µg/mL (≈ 0.223 µM)

COC(=O)CC[C@H](C)C1CCC2C3CC(O)[C@@H]4C[C@@H](NCCNC(C)C)CC[C@]4(C)C3CC[C@@]21C (some centres unmarked) [R]
IC50 [2, 4]: 0.24 µg/mL (≈ 0.489 µM)

COC(=O)CC[C@@H](C)C1CCC2C3C(CC[C@@]21C)[C@@]1(C)CC[C@H](N2CCNCC2)C[C@H]1C[C@H]3O (some centres unmarked) [AE]
minimal effective concentration [1]: 10 µg/mL
IC50 [2, 4]: 0.28 µg/mL (≈ 0.59 µM)

COC(=O)CC[C@H](C)C1CCC2C3CC[C@@H]4C[C@@H](NCCNC(C)C)CC[C@]4(C)C3C[C@@H](O)[C@@]21C (some centres unmarked) [AA]
minimal effective concentration [1]: 10 µg/mL
IC50 [2, 4]: 0.42 µg/mL (≈ 0.856 µM)

COC(=O)CC[C@@H](C)C1CCC2C3C[C@@H](O)[C@H]4C[C@H](NCCN)CC[C@]4(C)C3CC[C@@]21C (some centres unmarked) [AG]
minimal effective concentration [1]: 10 µg/mL

C[C@@H](COc1ccccn1)C1CCC2C3CC[C@@H]4C[C@@H](NCCN)CC[C@]4(C)C3CC[C@@]21C (some centres unmarked) [Compound-N]
Aggregation Assay Minimum Effective Conc. [1]: 1 to 10 µg/mL
PBMC Proliferation ASSAY IC50 [2, 5]: 0.06 µg/mL

CC(C)OC(=O)CC[C@H](C)C1CCC2C3C(O)C[C@@H]4C[C@@H](NCCN)CC[C@]4(C)C3CC[C@@]21C (some centres unmarked) [U]
Aggregation Assay Minimum Effective Conc. [1]: 1 to 10 µg/mL
IC50 [2, 4]: 0.4 µg/mL (≈ 0.839 µM)

C[C@H](CC1CCOC1=O)C1CCC2C3CC[C@H]4C[C@@H](NCCN)CC[C@]4(C)C3CC[C@@]21C (some centres unmarked) [Compound-J]
minimal effective concentration [1]: 1 µg/mL
IC50 [2, 4]: 0.03 µg/mL (≈ 0.0675 µM)

COC(=O)CC[C@H](C)C1CCC2C3CC[C@@H]4C[C@@H](NCCNc5ccccc5)CC[C@]4(C)C3C[C@@H](O)[C@@]21C (some centres unmarked) [Y]
minimal effective concentration [1]: 10 µg/mL
